Data from patent US9657081B2, “Inhibiting peptides derived from triggering receptor expressed on myeloid cells-1 (TREM-1) TREM-like transcript 1 (TLT-1) for treatment of cardiovascular diseases” (INSERM (Institut National de la Sante et de la Recherche …, priority 2013, dated 2017).

What was measured:
[1] = target: T1, TREM-1 (Mus musculus, UniProt Q9JKE2); test: Mouse myocardial infarction, leukocyte recruitment and mobilization (flow cytometry), plasma chemokines; format: in vivo
T1 construct: endogenous in cells; host or cells: living mice (C57BL, Balb/c, ApoE-/-), in vivo
T1 sequence (Q9JKE2 21-230): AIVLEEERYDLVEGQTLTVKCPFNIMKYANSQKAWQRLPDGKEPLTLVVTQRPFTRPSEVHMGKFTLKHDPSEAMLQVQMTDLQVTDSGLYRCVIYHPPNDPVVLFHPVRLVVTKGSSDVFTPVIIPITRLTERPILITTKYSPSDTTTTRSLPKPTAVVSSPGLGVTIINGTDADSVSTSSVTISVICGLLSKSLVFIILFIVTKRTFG
Method: All procedures were performed on mice male C57BL/C ranging in age from 6-8 weeks. Mice were anesthetized by an intraperitoneal injection of xylazine (60 mg/kg) and fixed in supine position. The trachea was intubated and ventilated (the tidal volume was 200 μl/25 g and the respiratory rate was 120 breaths/min). After a left thoracotomy, the left coronary artery was identified and ligated with an 8-0 prolene surgical suture at 1.0 mm distal from tip of the left auricle. LAD occlusion was confirmed by a change in myocardial color from red to white in the ischemia area (Left ventricle). The chest was closed and the skin was sutured with 6-0 silk. The animals returned to their cage where they are supervised until their complete recovery.
Mice were monitored after surgery for mortality. Mice were randomized to receive or not peptides (daily ip injection for 5 days, 5 mg/kg) and monitored for survival. […] A median sternotomy was performed followed by excision of the heart and dissection of ischemic and non-ischemic areas. ARN extraction and protein extraction were then performed for RT-PCR, WB, immunohistology, and ELISA analysis.
To prepare single-cell suspensions from infarct tissue, hearts were harvested; minced with fine scissors; placed into a cocktail of collagenase I, collagenase XI, DNase I, and hyaluronidase (Sigma-Aldrich); and shaken at 37° C. for 1 h. Cells were then triturated through and centrifuged (15 min, 500 g, 4° C.).
Spleens were removed, triturated in HBSS at 4° C. with the end of a 3-ml syringe, and filtered through 70-μm nylon filters (BD). The cell suspension was centrifuged at 300 g for 10 min at 4° C. Red blood cells were lysed (Red Blood Cells Lysis solution, Miltenyi), and the splenocytes were washed with HBSS and resuspended in HBSS supplemented with 0.2% (wt/vol) BSA. Peripheral blood was drawn via cardiac puncture with citrate solution as anticoagulant, and red blood cells were lysed. Finally, bone-marrow single-cell suspensions were obtained from femurs after flushing them with 1 mL HBSS, filtering through 70-μm nylon filters and centrifugation at 300 g for 10 min at 4° C. Total viable cell numbers were determined from aliquots using a hemacytometer with Trypan blue (BioRad).
Cell suspensions were incubated in a cocktail of mAbs against CD4^+ or CD8^+ T cells (CD4- or CD8-APC, CD3ε-PE, CD45-FITC), B cells (CD19-PE, CD45-FITC), granulocytes (CD45-FITC, Ly-6G-APC), monocytes subsets (CD115-PE, Ly-6C-APC, CD45-FITC), all antibodies from Miltenyi Biotech. Reported cell numbers were calculated as the product of total living cells (total viable leukocytes per ml) and percentage of cells within selected gate, and reported per mg of tissue (heart), per organ (femur and spleen), or per mL (blood). Data were acquired on a FC500 cytometer (Beckman Coulter).

[2] = test system: TREM-1; test: Rat model of myocardial permanent ischemia (myocardial infarction), physiologic parameters and micro-TEP imaging; format: in vivo
Method: Adult male Wistar rats (360-380 g) were used. All rats were anaesthetized with ketamine (100 mg/kg, intramuscularly) and mechanically ventilated. After a left thoracotomy, the left coronary artery was identified and ligated with a 6-0 prolene surgical suture. LAD occlusion was confirmed by a change in myocardial color from red to white in the ischemia area (Left ventricle). The chest was closed and the skin was sutured with 6-0 silk. The animals returned to their cage where they were supervised until their complete recovery. The postoperative mortality rate of all rats was 20%.
After surgical LAD occlusion, importance of ischemic area was evaluated by micro-TEP imaging. Animals were then randomized to receive peptide (5 mg/kg) every 24 h for 5 days or placebo (vehicle).
A further evaluation was performed at 6 weeks by micro-TEP imaging and conductance catheter (Millar) in order to study the treatment effect on myocardial remodeling and myocardial function.
In all animals, approximately 70 MBq of ^18F-FDG (in a 0.3-0.5 ml volume) was injected intravenously and under a short anaesthesia (1.5-2.5% of isoflurane inhalation) 60 min prior to initiating PET recording. Recording was acquired in list mode under continuous anaesthesia by isoflurane, using a dedicated small animal PET system (Inveon, Siemens, Knoxville, Tenn., USA). The animals were positioned in the prone position and placed on a heating pad to maintain a body temperature within the normal range. The animals were connected to a standard ECG monitor by three electrodes placed on the inner surfaces of limb extremities. Recording times were 20 min for 18F emission and 6 min for 57Co transmission. The coincidence timing window was set to 3.4 ns and the energy window between 350 and 650 keV. Images were reconstructed in 16 cardiac intervals, providing a temporal resolution of 11-15 ms for common heart rate values. Under these conditions, the axial spatial resolution was less than 1.5 mm. In addition, on LV rat phantoms obtained by a stereolithography process, a precise determination of the actual cavity volumes was provided by FDG PET images above the level of 100 μl corresponding to the lower limit for the LV endsystolic volume in adult.
We finally investigated whether the modulation of the inflammatory response conferred by TREM-1- and TLT-1-derived peptides was able to translate into cardiac function improvement after a severe MI. We performed a permanent coronary artery ligation in rats before randomisation and imaging as described above.

LQEEDAGEYGCM (listed as Homo sapiens) [TLT1-LR12]
peripheral blood neutrophilia ([1]; 72 hours after MI): not observed
B- and CD8+-lymphocyte infiltration of infarcted myocardium ([1]; mouse MI): reduced
CD4+-cells recruitment to infarcted myocardium ([1]; mouse MI): increased
PMN infiltration of infarcted myocardium ([1]; mouse MI): blocked
Body weight ([2]; Baseline): 313 ± 51 g
EDV ([2]; Baseline): 417 ± 92 µL
EF ([2]; Baseline): 48 ± 9%
ESV ([2]; Baseline): 215 ± 62 µL
Heart rate ([2]; Baseline): 400 ± 26 bpm
MI Areas ([2]; Baseline): 22 ± 11 % of LV
MT Areas ([2]; Baseline): 54 ± 30 mm^2
Systolic blood pressure ([2]; Baseline): 136 ± 17 mmHg
Body weight ([2]; Six weeks): 426 ± 49 g
Body weight, difference with baseline ([2]; Six weeks): 113 ± 51 g
EDV ([2]; Six weeks): 615 ± 161 µL
EDV, difference with baseline ([2]; Six weeks): 198 ± 95 µL
EF ([2]; Six weeks): 50 ± 8%
EF, difference with baseline ([2]; Six weeks): 2 ± 7%
ESV ([2]; Six weeks): 313 ± 128 µL
ESV, difference with baseline ([2]; Six weeks): 99 ± 80 µL
Heart rate ([2]; Six weeks): 393 ± 23 bpm
Heart rate, difference with baseline ([2]; Six weeks): −8 ± 22 bpm
MI Areas (% of LV), difference with baseline ([2]; Six weeks): −6.0 ± 8.1 % of LV
MI Areas (mm^2), difference with baseline ([2]; Six weeks): −5 ± 23 mm^2
Systolic blood pressure ([2]; Six weeks): 136 ± 17 mmHg
Systolic blood pressure, difference with baseline ([2]; Six weeks): −12 ± 26 mmHg
